{"source": "patent US20240277682A1", "about": "“PHARMACEUTICAL HYDRONIDONE FORMULATIONS FOR DISEASES” (Gyre Therapeutics, Inc., priority 2021, published 2024)", "key": {"liver fibrosis": {"test_system": "liver fibrosis", "experiment": "CCl4-induced liver fibrosis in mice", "assay_type": "in vivo", "description": "Hydronidone anti-fibrotic effects were evaluated in several animal models of liver fibrosis, such as human serum albumin (HSA)-induced liver fibrosis in rats, dimethyl nitrosamine (DMN)-induced liver fibrosis in rats, and carbon tetrachloride (CCl4)-induced liver fibrosis in mice. […] In the CCl4-induced liver fibrosis in mice, Hydronidone effects were the most prominent at the doses of 3-10 mg/kg/day, although some effects were also shown at the dose of 1 mg/kg/day. In some embodiments, this dose range corresponds to human equivalent dose (HED) range of 15-50 mg. […] The HED of these rat doses are in the range of 100-2,400 mg which were all tested as safe in Phase I clinical trials of Hydronidone, with the 100 mg dose being […] the maximum daily dose of 360 mg (administered as 120 mg TID) administered to the subjects with liver fibrosis due to chronic Hepatitis B in the ongoing Phase II clinical study of efficacy and safety of Hydronidone in China."}, "[1]": {"experiment": "Safety, tolerability and PK of single doses, 7-day and 4-week multiple oral doses (Example 10)", "assay_type": "in vivo, human", "description": "This was a randomized, open-label, study of safety, tolerability and PK of single doses, 7-day, and 4-week multiple oral doses of Hydronidone in healthy Chinese subjects.\nThis study was conducted in three parts. In the first part single escalating doses of Hydronidone of 15 mg, 30 mg, 60 mg, 90 mg, and 120 mg/day were administered to six (6), eight (8), eight (8), six (6), six (6) healthy subjects, respectively, as per the Fibonacci Escalating Method (modified Fibonacci method). […] As no adverse experiences were reported at any dose level, the two highest single dose levels of 90 mg and 120 mg of Hydronidone were selected for the second part of the study, and were administered TID to 6 subjects each, for seven consecutive days. Thus, total daily doses of Hydronidone in these two dose groups were 270 mg and 360 mg, respectively. All subjects completed the seven-day dosing regimen without premature discontinuation. No clinically-significant abnormal changes in vital signs, ECG and laboratory test results of each group of subjects were found. In the third part of the study, six (6) subjects were given oral Hydronidone at a daily dose of 60 mg TID (total daily dose of 180 mg) for four (4) consecutive weeks. All subjects completed the seven-day dosing regimen without premature discontinuation. No clinically-significant abnormal changes in vital signs, ECG and laboratory test results of each group of subjects were found.\nPK assessments were performed in each part of the study. In the single part of the study, the PK parameters also included food effect assessment."}, "human CYP 1A2": {"target": "T1, human CYP 1A2 (Homo sapiens, UniProt P05177)", "T1 sequence (P05177 1-516)": "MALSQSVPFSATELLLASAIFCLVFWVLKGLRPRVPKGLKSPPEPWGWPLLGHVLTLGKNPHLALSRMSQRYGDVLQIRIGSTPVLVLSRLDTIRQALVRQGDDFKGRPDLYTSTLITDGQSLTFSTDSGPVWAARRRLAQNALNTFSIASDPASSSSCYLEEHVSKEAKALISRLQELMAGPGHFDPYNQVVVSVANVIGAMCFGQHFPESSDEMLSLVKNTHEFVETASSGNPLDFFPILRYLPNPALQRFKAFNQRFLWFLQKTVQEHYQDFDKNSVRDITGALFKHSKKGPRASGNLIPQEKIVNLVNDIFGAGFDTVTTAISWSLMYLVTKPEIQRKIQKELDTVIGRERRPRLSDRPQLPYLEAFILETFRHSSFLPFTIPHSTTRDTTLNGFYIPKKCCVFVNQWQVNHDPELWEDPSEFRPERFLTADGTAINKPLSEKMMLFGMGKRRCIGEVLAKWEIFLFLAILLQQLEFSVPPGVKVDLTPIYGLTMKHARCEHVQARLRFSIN", "experiment": "biochemical", "description": "In vitro study investigated whether Hydronidone is inhibitor for human cytochrome P450 (CYP450). The effects of different Hydronidone concentrations were determined by the fluorescence intensity of metabolic substrates of CYP1A2, 2C9, 2C19, 2 D6 and 3A4, produced under the effect of the relevant enzyme. The respective IC50 value were calculated in the event of observed inhibition with hydronidone."}}, "data": [{"compound": "Cc1ccc(=O)n(-c2ccc(O)cc2)c1", "note": "[Hydronidone, N-(4-hydroxyphenyl)-5-Methyl-2-pyridone]", "values": [{"measurement": "anti-fibrotic effect (level of fibrosis, hydroxyproline, ALT, AST)", "setting": "liver fibrosis", "value": "potent anti-fibrotic effect"}, {"measurement": "dose at which some effects were also shown", "setting": "liver fibrosis", "value": 1, "unit": "mg/kg/day"}, {"measurement": "doses at which effects were the most prominent", "setting": "liver fibrosis", "value": "3 to 10", "unit": "mg/kg/day"}, {"measurement": "maximum tolerated single oral dose", "setting": "[1]; healthy subjects", "value": 120, "unit": "mg"}, {"measurement": "Tmax", "setting": "[1]; human, in vivo, po, 120 mg", "value": "36 ± 29.4", "unit": "min"}, {"measurement": "QTc interval", "setting": "[1]; in vivo", "value": "no abnormal prolongation of the QTc interval"}, {"measurement": "subjects with increase in T-BIL and D-BIL post-dose values", "setting": "[1]; in vivo", "value": "Three"}, {"measurement": "IC50", "setting": "human CYP 1A2", "value": "> 100", "unit": "µM"}]}]}
